Experiment [1] deals with T1, Purified recombinant NBD1 (Homo sapiens, UniProt P13569).
T1 construct: Purified recombinant NBD1 was produced using previously described methods; made in house
Nature of the experiment: Aggregation analysis using differential static light scattering (DSLS): thermal stability of NBD1. To be noted: NBD1 0.2 mg/ml; Tagg of compound well minus average Tagg of DMSO control wells. The format is binding. In a few lines: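 Recombinant NBD1 at 0.2 mg/ml in Tris/NaCl/MgCl2 buffer with 2 mM ATP, 2 mM DTT, 1% glycerol, pH 7.6, was incubated with compound and heated at 1 °C/min to 70 °C while static light scattering was monitored. Tagg was taken from the curve inflection point and reported as ΔTagg relative to DMSO controls.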

Experiment [2] has as its system Primary human bronchial epithelial cells from a ΔF508 homozygous CF donor (CF-HBE cells). The experiment can be described thus: TECC24 recording of CFTR-mediated transepithelial chloride transport, AUC fold over benchmark VX-809 @10 μM. The format is cell-based. To be noted: 48 hours incubation, AUC of forskolin-stimulated IEQ. In a few lines:
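CF-HBE cells on inserts were treated with compound for 48 h at 36.5 °C, then recorded in current-clamp with benzamil 10 μM, forskolin 10 μM, and finally CFTR inhibitor-172 20 μM in pH 7.4 Hepes saline. Equivalent Cl− current AUC between forskolin and inhibitor addition is expressed as a ratio to VX-809 AUC: A <3, B 3–6, C 6–20.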

Molecules are shown by their SMILES.

T1 sequence (P13569 423-646 limits assumed): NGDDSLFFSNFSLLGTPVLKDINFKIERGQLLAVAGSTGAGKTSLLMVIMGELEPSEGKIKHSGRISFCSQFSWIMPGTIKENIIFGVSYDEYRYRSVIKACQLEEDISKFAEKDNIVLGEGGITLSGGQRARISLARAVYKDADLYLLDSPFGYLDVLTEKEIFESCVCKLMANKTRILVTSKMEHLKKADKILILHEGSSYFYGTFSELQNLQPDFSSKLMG

On to `O=C(O)CCc1cccc(C2CCCNC(=O)CCc3c(c(F)cc4[nH]ccc34)Oc3ccc(F)c(c3)-c3ncc2[nH]3)c1` (stereo not drawn) [Compound 8, 3-[3-(21,27-Difluoro-11-oxo-23-oxa-3,10,18,29-tetrazapentacyclo[22.3.1.12,5.014,22.015,19]nonacosa-1(28),2,4,14,16,19,21,24,26-nonaen-6-yl)phenyl]propanoic acid], for which, in experiment [1], the “DSLS (ΔTagg)” value was “C (a value greater than 10 °C and less than or equal to 25 °C is marked “C”)”. Besides, the “TECC (test agent AUC divided by VX-809 AUC)” value in experiment [2] is “A (a TECC value less than 3 is marked “A”)”.

Regarding `CC1(c2cccc(CCC(=O)O)c2)CC(=O)NCCCCCc2c(c(F)cc3[nH]ccc23)Oc2ccc(F)c(c2)-c2ncc1[nH]2` (stereo not drawn) [Compound 26, 3-[3-(22,28-Difluoro-6-methyl-8-oxo-24-oxa-3,9,19,30-tetrazapentacyclo[23.3.1.12,5.015,23.016,20]triaconta-1(29),2,4,15,17,20,22,25,27-nonaen-6-yl)phenyl]propanoic acid], the “DSLS (ΔTagg)” value in experiment [1] is “C (a value greater than 10 °C and less than or equal to 25 °C is marked “C”)”. In addition, the “TECC (test agent AUC divided by VX-809 AUC)” value in experiment [2] is “B (a value between 3 and 6 is marked “B”)”.

Turning to `CC1(c2ccccc2)CC(=O)NCCCCCc2c(c(F)cc3[nH]ccc23)Oc2ccc(F)c(c2)-c2ncc1[nH]2` (stereo not drawn) [Compound 27, 22,28-Difluoro-6-methyl-6-phenyl-24-oxa-3,9,19,30-tetrazapentacyclo[23.3.1.12,5.015,23.016,20]triaconta-1(29),2,4,15,17,20,22,25,27-nonaen-8-one], the “DSLS (ΔTagg)” value in experiment [1] was “A (an ΔTagg value less than or equal to 5 °C is marked “A”)”. Also, in experiment [2], the “TECC (test agent AUC divided by VX-809 AUC)” value is on record as “A (a TECC value less than 3 is marked “A”)”.

With `CN1CC(C)(C)CCCC(c2cccc(CCC(=O)O)c2F)c2cnc([nH]2)-c2cc(ccc2F)Oc2c(F)cc3[nH]ccc3c2CCC1=O` (stereo not drawn) [Compound 28, 3-[3-(23,29-Difluoro-10,10,12-trimethyl-13-oxo-25-oxa-3,12,20,31-tetrazapentacyclo[24.3.1.12,5.016,24.017,21]hentriaconta-1(30),2,4,16,18,21,23,26,28-nonaen-6-yl)-2-fluoro-phenyl]propanoic acid], the “DSLS (ΔTagg)” value in experiment [1] was “C (a value greater than 10 °C and less than or equal to 25 °C is marked “C”)”. Besides, in experiment [2], the “TECC (test agent AUC divided by VX-809 AUC)” value was “A (a TECC value less than 3 is marked “A”)”.

For the compound `CN1CCC(C)(C)CCC(C)(c2cccc(CCC(=O)O)c2)c2cnc([nH]2)-c2cc(ccc2F)Oc2c(F)cc3[nH]ccc3c2CCC1=O` (stereo not drawn) [Compound 29, 3-[3-(23,29-Difluoro-6,9,9,12-tetramethyl-13-oxo-25-oxa-3,12,20,31-tetrazapentacyclo[24.3.1.12,5.016,24.017,21]hentriaconta-1(30),2,4,16,18,21,23,26,28-nonaen-6-yl)phenyl]propanoic acid], the “DSLS (ΔTagg)” value in experiment [1] is “C (a value greater than 10 °C and less than or equal to 25 °C is marked “C”)”. In addition, the “TECC (test agent AUC divided by VX-809 AUC)” value in experiment [2] was “B (a value between 3 and 6 is marked “B”)”.

Turning to `CN1CCC(C)(C)CCC(c2cccc(CCC(=O)O)c2F)c2cnc([nH]2)-c2cc(ccc2F)Oc2c(F)cc3[nH]ccc3c2CCC1=O` (stereo not drawn) [Compound 30, 3-[3-(23,29-Difluoro-9,9,12-trimethyl-13-oxo-25-oxa-3,12,20,31-tetrazapentacyclo[24.3.1.12,5.016,24.017,21]hentriaconta-1(30),2,4,16,18,21,23,26,28-nonaen-6-yl)-2-fluoro-phenyl]propanoic acid], the “DSLS (ΔTagg)” value in experiment [1] was “B (a value above 5 °C and less than or equal to 10 °C is marked “B”)”. The “TECC (test agent AUC divided by VX-809 AUC)” value in experiment [2] is reported as “A (a TECC value less than 3 is marked “A”)”.

On to `CN1CCC(C)(C)CCC(c2ccccc2F)c2cnc([nH]2)-c2cc(ccc2F)Oc2c(F)cc3[nH]ccc3c2CCC1=O` (stereo not drawn) [Compound 31, 23,29-difluoro-6-(2-fluorophenyl)-9,9,12-trimethyl-25-oxa-3,12,20,31-tetrazapentacyclo[24.3.1.12,5.016,24.017,21]hentriaconta-1(30),2,4,16,18,21,23,26,28-nonaen-13-one], for which, in experiment [1], the “DSLS (ΔTagg)” value was “A (an ΔTagg value less than or equal to 5 °C is marked “A”)”. The “TECC (test agent AUC divided by VX-809 AUC)” value in experiment [2] is on record as “A (a TECC value less than 3 is marked “A”)”.

For the compound `CN1CC(C)(C)CCC(C)(c2cccc(CCC(=O)O)c2)c2cnc([nH]2)-c2cc(ccc2F)Oc2c(F)cc3[nH]ccc3c2CCC1=O` (stereo not drawn) [Compound 33, 3-[3-(22,28-Difluoro-6,9,9,11-tetramethyl-12-oxo-24-oxa-3,11,19,30-tetrazapentacyclo[23.3.1.12,5.015,23.016,20]triaconta-1(29),2,4,15,17,20,22,25,27-nonaen-6-yl)phenyl]propanoic acid], in experiment [1], the “DSLS (ΔTagg)” value is “B (a value above 5 °C and less than or equal to 10 °C is marked “B”)”. For the same compound, the “TECC (test agent AUC divided by VX-809 AUC)” value in experiment [2] is listed as “A (a TECC value less than 3 is marked “A”)”.

Consider `CN1CC2(CCCC(C)(c3cccc(CCC(=O)O)c3)c3cnc([nH]3)-c3cc(ccc3F)Oc3c(F)cc4[nH]ccc4c3CCC1=O)CC2` (stereo not drawn) [Compound 34, 3-[3-(23,29-Difluoro-6,12-dimethyl-13-oxo-spiro[25-oxa-3,12,20,31-tetrazapentacyclo[24.3.1.12,5.016,24.017,21]hentriaconta-1(30),2,4,16,18,21,23,26,28-nonaene-10,1′-cyclopropane]-6-yl)phenyl]propanoic acid], for which the “DSLS (ΔTagg)” value in experiment [1] was “C (a value greater than 10 °C and less than or equal to 25 °C is marked “C”)”. The “TECC (test agent AUC divided by VX-809 AUC)” value in experiment [2] is “A (a TECC value less than 3 is marked “A”)”.

On to `CN1CC2(CCCC(C)(c3ccccc3)c3cnc([nH]3)-c3cc(ccc3F)Oc3c(F)cc4[nH]ccc4c3CCC1=O)CC2` (stereo not drawn) [Compound 35, 23,29-Difluoro-6,12-dimethyl-6-phenyl-spiro[25-oxa-3,12,20,31-tetrazapentacyclo[24.3.1.12,5.016,24.017,21]hentriaconta-1(30),2,4,16,18,21,23,26,28-nonaene-10,1′-cyclopropane]-13-one], for which, in experiment [1], the “DSLS (ΔTagg)” value is “A (an ΔTagg value less than or equal to 5 °C is marked “A”)”. Besides, the “TECC (test agent AUC divided by VX-809 AUC)” value in experiment [2] is recorded as “A (a TECC value less than 3 is marked “A”)”.

As for `CC1(c2cccc(CCC(=O)O)c2)CCCC2(CC2)CNC(=O)CCc2c(c(F)cc3[nH]ccc23)Oc2ccc(F)c(c2)-c2ncc1[nH]2` (stereo not drawn) [Compound 36, 3-[3-(23,29-Difluoro-6-methyl-13-oxo-spiro[25-oxa-3,12,20,31-tetrazapentacyclo[24.3.1.12,5.016,24.017,21]hentriaconta-1(30),2,4,16,18,21,23,26,28-nonaene-10,1′-cyclopropane]-6-yl)phenyl]propanoic acid], the “DSLS (ΔTagg)” value in experiment [1] was “C (a value greater than 10 °C and less than or equal to 25 °C is marked “C”)”. For the same compound, the “TECC (test agent AUC divided by VX-809 AUC)” value in experiment [2] is “B (a value between 3 and 6 is marked “B”)”.

Regarding `CC1(c2ccccc2)CCCC2(CC2)CNC(=O)CCc2c(c(F)cc3[nH]ccc23)Oc2ccc(F)c(c2)-c2ncc1[nH]2` (stereo not drawn) [Compound 37, 23,29-Difluoro-6-methyl-6-phenyl-spiro[25-oxa-3,12,20,31-tetrazapentacyclo[24.3.1.12,5.016,24.017,21]hentriaconta-1(30),2,4,16,18,21,23,26,28-nonaene-10,1′-cyclopropane]-13-one], the “DSLS (ΔTagg)” value in experiment [1] was “A (an ΔTagg value less than or equal to 5 °C is marked “A”)”. In experiment [2], the “TECC (test agent AUC divided by VX-809 AUC)” value is reported as “A (a TECC value less than 3 is marked “A”)”.

Values taken from patent publication US20250197420A1, “MACROCYCLIC COMPOUNDS, COMPOSITIONS, AND METHODS OF USING THEREOF” (Sionna Therapeutics Inc., priority 2022, published 2025).
